Legend:
ABUTH [1] = test: Pre-emergence herbicidal action against ABUTH; type: in vivo, Abutilon theophrasti
Procedure, shortened: (§1)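 Sandy loam pots, seeds covered with soil, then surface-treated with WP or EC formulations at 600–800 l/ha water plus 0.2% wetting agent. Greenhouse, 3 weeks. Percent damage vs untreated controls.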

ALOMY [2] = test: Pre-emergence herbicidal action against ALOMY; type: in vivo, Alopecurus myosuroides
Procedure, shortened: as §1

AMARE [3] = test: Pre-emergence herbicidal action against AMARE; type: in vivo, Amaranthus retroflexus
Procedure, shortened: as §1

AVEFA [4] = test: Pre-emergence herbicidal action against AVEFA; type: in vivo, Avena fatua
Procedure, shortened: as §1

ECHCG [5] = test: Pre-emergence herbicidal action against ECHCG; type: in vivo, Echinochloa crus-galli; settings: 80 g/ha
Procedure, shortened: as §1

LOLRI = test: Pre-emergence herbicidal action against LOLRI; type: in vivo, Lolium rigidum; settings: 80 g/ha
Procedure, shortened: as §1

MATIN [6] = test: Pre-emergence herbicidal action against MATIN; type: in vivo, Matricaria inodora
Procedure, shortened: as §1

PHBPU [7] = test: Pre-emergence herbicidal action against PHBPU; type: in vivo, Pharbitis purpurea
Procedure, shortened: as §1

POLCO [8] = test: Pre-emergence herbicidal action against POLCO; type: in vivo, Polygonum convolvulus; settings: dosage 80 g/ha
Procedure, shortened: as §1

SETVI [9] = test: Pre-emergence herbicidal action against SETVI; type: in vivo, Setaria viridis
Procedure, shortened: as §1

VIOTR [10] = test: Pre-emergence herbicidal action against VIOTR; type: in vivo, Viola tricolor
Procedure, shortened: as §1

DIGSA [11] = test: Pre-emergence herbicidal action against DIGSA; type: in vivo, Digitaria sanguinalis
Procedure, shortened: as §1

ABUTH [12] = test: Post-emergence herbicidal action against ABUTH; type: in vivo, Abutilon theophrasti; settings: dosage 20 g/ha, visual assessment about 3 weeks after treatment vs untreated controls
Procedure, shortened: (§2)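 Herbicidal action is a visual percentage rating (0% = as untreated control, 100% = plants dead) made roughly 3 weeks after treatment. Plants were grown in sandy loam in the greenhouse and treated at the one-leaf stage, 2 to 3 weeks post-sowing. Treatment was a foliar spray of wettable-powder or emulsion-concentrate formulations at 600 to 800 l/ha water plus 0.2% wetting agent.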

ALOMY [13] = test: Post-emergence herbicidal action against ALOMY; type: in vivo, Alopecurus myosuroides; settings: visual assessment about 3 weeks after treatment vs untreated controls
Procedure, shortened: as §2

AMARE [14] = test: Post-emergence herbicidal action against AMARE; type: in vivo, Amaranthus retroflexus; settings: 20 g/ha, visual assessment about 3 weeks after treatment, 100% = plants have died, 0% = like control plants
Procedure, shortened: as §2

AVEFA [15] = test: Post-emergence herbicidal action against AVEFA; type: in vivo, Avena fatua; settings: 20 g/ha, visual assessment about 3 weeks after treatment, 100% = plants have died, 0% = like control plants
Procedure, shortened: as §2

ECHCG [16] = test: Post-emergence herbicidal action against ECHCG; type: in vivo, Echinochloa crus-galli
Procedure, shortened: as §2

PHBPU [17] = test: Post-emergence herbicidal action against PHBPU; type: in vivo, Pharbitis purpurea
Procedure, shortened: as §2

POLCO [18] = test: Post-emergence herbicidal action against POLCO; type: in vivo, Polygonum convolvulus; settings: dosage 20 g/ha
Procedure, shortened: as §2

SETVI [19] = test: Post-emergence herbicidal action against SETVI; type: in vivo, Setaria viridis
Procedure, shortened: as §2

VERPE [20] = test: Post-emergence herbicidal action against VERPE; type: in vivo, Veronica persica; settings: 20 g/ha
Procedure, shortened: as §2

VIOTR [21] = test: Post-emergence herbicidal action against VIOTR; type: in vivo, Viola tricolor
Procedure, shortened: as §2

DIGSA [22] = test: Post-emergence herbicidal action against DIGSA; type: in vivo, Digitaria sanguinalis
Procedure, shortened: as §2

VERPE [23] = test: Pre-emergence herbicidal action against VERPE; type: in vivo, Veronica persica; settings: Veronica persica, 504 h, dosage 80 g/ha
Procedure, shortened: as §1

MATIN [24] = test: Post-emergence herbicidal action against MATIN; type: in vivo, Matricaria inodora; settings: Tripleurospermum inodorum, 504 h
Procedure, shortened: as §2

[25] = 80 g/ha, scored visually after 3 weeks vs untreated controls (100% = plants have died, 0% = like control plants)
[26] = 20 g/ha, scored visually after 3 weeks, 100% = plants have died, 0% = like control plants

## Cn1nnnc1NC(=O)c1ccc(C(F)(F)F)c(C(=O)NCC(F)F)c1Br [Example 1-212]
ABUTH [1]; [25]
  Pre-emergence action against ABUTH (herbicidal activity): 100%
ABUTH [1]; dosage 20 g/ha, scored visually after 3 weeks vs untreated controls, 100% = plants have died, 0% = like control plants
  Pre-emergence action against ABUTH (herbicidal activity in percent): 80%
ALOMY [2]; [26]
  Pre-emergence action against ALOMY: 100%
ALOMY [2]; 80 g/ha, pre-emergence, scored visually after 3 weeks vs untreated controls (100% = plants have died, 0% = like control plants)
  Pre-emergence action against ALOMY (herbicidal activity): 100%
AMARE [3]; 20 g/ha, scored visually after 3 weeks vs untreated controls, 100% = plants have died, 0% = like control plants
  Pre-emergence action against AMARE in %: 100%
AMARE [3]; [25]
  Pre-emergence action against AMARE in %: 100%
AVEFA [4]; [26]
  Pre-emergence action against AVEFA: 80%
AVEFA [4]; 80 g/ha, pre-emergence
  Pre-emergence action against AVEFA in %: 90%
ECHCG [5]
  Pre-emergence action against ECHCG in %: 100%
LOLRI
  Pre-emergence action against LOLRI in %: 80%
MATIN [6]; dosage 20 g/ha
  Pre-emergence action against MATIN in %: 90%
MATIN [6]; dosage 80 g/ha
  Pre-emergence action against MATIN in %: 100%
PHBPU [7]; dosage 20 g/ha
  Pre-emergence action against PHBPU in %: 80%
PHBPU [7]; dosage 80 g/ha
  Pre-emergence action against PHBPU in %: 80%
POLCO [8]
  Pre-emergence action against POLCO in %: 80%
SETVI [9]; dosage 20 g/ha
  Pre-emergence action against SETVI in %: 80%
SETVI [9]; dosage 80 g/ha
  Pre-emergence action against SETVI in %: 100%
VIOTR [10]; dosage 20 g/ha
  Pre-emergence action against VIOTR in %: 100%
VIOTR [10]; dosage 80 g/ha
  Pre-emergence action against VIOTR in %: 100%
DIGSA [11]; dosage 20 g/ha
  Pre-emergence action against DIGSA in %: 100%
DIGSA [11]; dosage 80 g/ha
  Pre-emergence action against DIGSA in %: 100%
ABUTH [12]
  Post-emergence action against ABUTH in %: 80%
ALOMY [13]; dosage 5 g/ha
  Post-emergence action against ALOMY in %: 80%
ALOMY [13]; dosage 20 g/ha
  Post-emergence action against ALOMY in %: 90%
AMARE [14]
  Post-emergence action at 20 g/ha against AMARE in %: 100%
AVEFA [15]
  Post-emergence action at 20 g/ha against AVEFA in %: 80%
ECHCG [16]; dosage 5 g/ha
  Post-emergence action against ECHCG in %: 80%
ECHCG [16]; dosage 20 g/ha
  Post-emergence action against ECHCG in %: 80%
PHBPU [17]; dosage 5 g/ha
  Post-emergence action against PHBPU in %: 80%
PHBPU [17]; dosage 20 g/ha
  Post-emergence action against PHBPU in %: 90%
POLCO [18]
  Post-emergence action against POLCO in %: 100%
SETVI [19]; dosage 5 g/ha
  Post-emergence action against SETVI in %: 80%
SETVI [19]; dosage 20 g/ha
  Post-emergence action against SETVI in %: 90%
VERPE [20]
  Post-emergence action against VERPE in %: 80%
VIOTR [21]; 5 g/ha
  Post-emergence action against VIOTR in %: 80%
VIOTR [21]; 20 g/ha
  Post-emergence action against VIOTR in %: 90%
DIGSA [22]; 5 g/ha
  Post-emergence action against DIGSA in %: 90%
DIGSA [22]; 20 g/ha
  Post-emergence action against DIGSA: 100%

## CCn1nnnc1NC(=O)c1ccc(Br)c(C(=O)NC2CC2)c1Cl [Example 2-179]
ABUTH [1]; Abutilon theophrasti, 504 h, 80 g/ha, scored visually after 3 weeks vs untreated controls (100% = plants have died, 0% = like control plants)
  pest or weed control at 80 g/ha: 100%
ALOMY [2]; Alopecurus myosuroides, 504 h, 80 g/ha, pre-emergence, scored visually after 3 weeks vs untreated controls (100% = plants have died, 0% = like control plants)
  pest or weed control at 80 g/ha: 100%
ALOMY [2]; Alopecurus myosuroides, pre-emergence, 504 h, 20 g/ha, scored visually after 3 weeks, 100% = plants have died, 0% = like control plants
  pest or weed control at 20 g/ha: 80%
AMARE [3]; Amaranthus retroflexus, 504 h, 20 g/ha, scored visually after 3 weeks vs untreated controls, 100% = plants have died, 0% = like control plants
  pest or weed control at 20 g/ha: 100%
AMARE [3]; Amaranthus retroflexus, 504 h, 80 g/ha, scored visually after 3 weeks vs untreated controls, 100% = plants have died, 0% = like control plants
  pest or weed control at 80 g/ha: 100%
AVEFA [4]; Avena fatua, 504 h, 80 g/ha, pre-emergence
  pest or weed control at 80 g/ha: 100%
ECHCG [5]; Echinochloa crus-galli, 504 h
  pest or weed control at 80 g/ha: 100%
LOLRI; Lolium rigidum, 504 h
  pest or weed control at 80 g/ha: 80%
MATIN [6]; Tripleurospermum inodorum, 504 h, dosage 20 g/ha
  pest or weed control at 20 g/ha: 100%
MATIN [6]; Tripleurospermum inodorum, 504 h, dosage 80 g/ha
  pest or weed control at 80 g/ha: 100%
PHBPU [7]; Ipomoea purpurea, 504 h, dosage 80 g/ha
  pest or weed control at 80 g/ha: 80%
SETVI [9]; Setaria viridis, 504 h, dosage 80 g/ha
  pest or weed control at 80 g/ha: 100%
VERPE [23]
  pest or weed control at 80 g/ha: 90%
VIOTR [10]; Viola tricolor, 504 h, dosage 20 g/ha
  pest or weed control at 20 g/ha: 100%
VIOTR [10]; Viola tricolor, 504 h, dosage 80 g/ha
  pest or weed control at 80 g/ha: 100%
DIGSA [11]; Digitaria sanguinalis, 504 h, dosage 20 g/ha
  pest or weed control at 20 g/ha: 100%
DIGSA [11]; Digitaria sanguinalis, 504 h, dosage 80 g/ha
  pest or weed control at 80 g/ha: 100%
ABUTH [12]; Abutilon theophrasti, 504 h
  pest or weed control at 20 g/ha: 90%
ALOMY [13]; Alopecurus myosuroides, 504 h, dosage 20 g/ha
  pest or weed control at 20 g/ha: 90%
AMARE [14]; Amaranthus retroflexus, 504 h
  pest or weed control at 20 g/ha: 100%
ECHCG [16]; Echinochloa crus-galli, 504 h, dosage 20 g/ha
  pest or weed control at 20 g/ha: 80%
MATIN [24]; dosage 5 g/ha
  pest or weed control at 5 g/ha: 80%
MATIN [24]; dosage 20 g/ha
  pest or weed control at 20 g/ha: 90%
PHBPU [17]; Ipomoea purpurea, 504 h, dosage 20 g/ha
  pest or weed control at 20 g/ha: 80%
POLCO [18]; Fallopia convolvulus, 504 h
  pest or weed control at 20 g/ha: 90%
SETVI [19]; Setaria viridis, 504 h, dosage 5 g/ha
  pest or weed control at 5 g/ha: 90%
SETVI [19]; Setaria viridis, 504 h, dosage 20 g/ha
  pest or weed control at 20 g/ha: 90%
VIOTR [21]; Viola tricolor, 504 h, 5 g/ha
  pest or weed control at 5 g/ha: 90%
VIOTR [21]; Viola tricolor, 504 h, 20 g/ha
  pest or weed control at 20 g/ha: 100%

— patent US12655116B2, “Substituted isophthalic acid diamides” (Bayer Aktiengesellschaft, priority 2020, dated 2026)
